# Where two headings read alike, the source gives them in different places.
# What was measured:
# [1] = system: IL-1β stimulated IL-8 release in hTHP1 cells; experiment: IL-1β-induced IL-8 release in human THP-1 monocyte cell line; type: cell-based; conditions: THP-1 cells, IL-1β 1.8 ng/mL
# Experimental: Effect of IRAK4 Inhibitors on IL-1β-Induced Cytokine Release in Human THP-1 Monocyte Cell Line
# THP-1 cells were cultured in RPMI 1640 (Gibco 72400-021) containing 10% FBS (Gibco 10270-106), 1 mM Na-pyruvate (Gibco 11360-070) and 100 U/mL Penicillin-Streptomycin (Gibco 15140-122). Cells were plated at 5×10^4 cells per well in 384 well Echo certified plates (Labcyte PPT-0200) to which compounds had been added at various concentrations (10 point half log dose response with a final top concentration of 10 μM) using an Echo 655 (Labcyte Inc). The plate was incubated for 1 h at 37° C., then recombinant […] (R&D Systems 201-LB-025/CF) was added to a final concentration of 1.8 ng/mL. The plates were incubated at 37° C. for 18h. The plates were centrifuged at 250×g for four minutes, then 1.6 μL of the cell supernatant was transferred to a white low volume 384 well plate (Greiner #784075) using acoustic dispensing on an Echo 655. Next, 200 nL of acceptor bead (5 mg/mL) and biotinylated anti-IL-8 antibody (500 nM) was added using acoustic dispensing (beads and antibody were from a PerkinElmer 18 Alpha LISA detection kit, AL224C). The plate was sealed, briefly centrifuged, then incubated at room temperature for 1 h. Afterwards, 200 nL of donor bead solution (5 mg/mL) was added, the plate sealed and briefly centrifuged, then incubated for 1 h before being read on an Envision plate reader to allow determination the concentration of IRAK4 inhibitor required to effect a 50% reduction in the amount of IL-8 released following IL-1β stimulation in THP1 cells (Table 2). The quantified data were analysed in Genedata Screener 15 (Genedata AG). Data presented are the geometric mean of at least n=2, or as denoted by an * are obtained from a single experiment.
# [2] = target: human recombinant IRAK4 protein (Homo sapiens (Human), UniProt Q9NWZ3); experiment: IRAK4 enzyme assay (mass spectrometry readout); type: biochemical; conditions: 3 mM ATP, 0.2 nM enzyme; geometric mean of at least n=2, * single experiment
# In short: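 0.2 nM IRAK4 preincubated 15 min at room temperature with compound (10-point half-log series, top 1 μM or 10 μM) in pH 7.4 Tris buffer with 3 mM ATP; 10 μM peptide substrate added, 2 h at room temperature, formic acid stop. Phospho/unphospho peptide ratio by LC-MS/MS; potency from curve fit, geometric mean of n≥2 or single run.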
# [3] = target: IRAK4 auto-phosphorylation (Homo sapiens (Human), UniProt Q9NWZ3); experiment: IRAK4 phosphorylation cell assay in IL-1β-stimulated Karpas-299 cells; type: cell-based; conditions: IL-1β 22.7 ng/mL, pIRAK4 (Thr345/Ser346), geometric mean of at least 2 experiments
# In short: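 Karpas-299 cells were preincubated 1 h at 37 °C with compound (10-point half-log series, top 30 μM), then stimulated 10 min with 22.7 ng/mL IL-1β. Cells were fixed and stained for pIRAK4 (Thr345/Ser346), and per-cell fluorescence was quantified by high-content imaging. IC50 values are geometric means of at least 2 experiments.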
# [4] = Homo sapiens, THP-1, 18 h, geometric mean of at least n=2, * n = 1, read-out: hTHP1, IL1β stim, IL8 release red. IC50
# [5] = 18 h, geometric mean of at least n=2, * n = 1, read-out: hTHP1, IL1β stim, IL8 release red. IC50
# IRAK4 auto-phosphorylation, sequence (Q9NWZ3 whole entry): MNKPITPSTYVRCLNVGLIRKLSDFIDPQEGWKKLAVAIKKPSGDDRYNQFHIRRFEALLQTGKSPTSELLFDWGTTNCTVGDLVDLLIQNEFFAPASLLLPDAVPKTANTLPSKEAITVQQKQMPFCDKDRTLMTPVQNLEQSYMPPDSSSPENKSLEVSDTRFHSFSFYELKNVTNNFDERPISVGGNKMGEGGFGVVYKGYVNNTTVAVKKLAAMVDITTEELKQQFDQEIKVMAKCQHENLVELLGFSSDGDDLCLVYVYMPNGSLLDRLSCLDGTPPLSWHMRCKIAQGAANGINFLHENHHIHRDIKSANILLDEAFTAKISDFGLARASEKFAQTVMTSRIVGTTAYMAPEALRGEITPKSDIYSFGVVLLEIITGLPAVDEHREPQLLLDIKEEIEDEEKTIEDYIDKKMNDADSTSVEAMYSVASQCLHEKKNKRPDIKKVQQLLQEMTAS
# human recombinant IRAK4 protein, sequence (Q9NWZ3 whole entry): as above
SMILES,"IC50 [1, 4] [nM]",IC50 [2] [nM],IC50 [3] [nM],"IC50 [1, 5] [nM]"
"COc1cc2nn([C@H]3CC[C@H](O)C[C@@H]3C)cc2cc1C(=O)Nc1cnn2cccnc12 (single isomer, unassigned) [Example 38]",31,4.6,186,
"C[C@H]1C[C@@H](O)CC[C@@H]1n1cc2cc(C(=O)Nc3cnn4cccnc34)c(OC3CC3)cc2n1 (single isomer, unassigned) [Example 45]",46,1.2,70,
"COc1cc2nn([C@@H]3CCC4(C[C@@H]3C)CN(C(C)=O)C4)cc2cc1C(=O)Nc1cnc2cccnn12 (single isomer, unassigned) [Example 64]",,< 0.5,38,18
"COc1cc2nn([C@@H]3CCC4(C[C@@H]3C)CN(C(C)=O)C4)cc2cc1C(=O)Nc1cnc2cccnn12 (single isomer, unassigned) [Example 65]",,1.1,44,52
"COc1cc2nn([C@@H]3CCC4(C[C@H]3C)CN(C(C)=O)C4)cc2cc1C(=O)Nc1cnc2cccnn12 (single isomer, unassigned) [Example 66]",,< 0.5,23,18
"COc1cc2nn([C@@H]3CCC4(C[C@H]3C)CN(C(C)=O)C4)cc2cc1C(=O)Nc1cnc2cccnn12 (single isomer, unassigned) [Example 67]",,4.3,144,91
"COc1cc2nn([C@H]3CC[C@H](O)[C@@H](C)C3)cc2cc1C(=O)Nc1cnc2cccnn12 (single isomer, unassigned) [Example 80]",70,1.5,28,
"COc1cc2nn([C@H]3CC[C@@H](O)CC3)cc2cc1C(=O)Nc1cnc2cccnn12 [Example 7, 2-((1s,4s)-4-Hydroxycyclohexyl)-N-(imidazo[1,2-b]pyridazin-3-yl)-6-methoxy-2H-indazole-5-carboxamide]",,6,111,48
"COc1cc2nn([C@H]3CC[C@H](O)CC3)cc2cc1C(=O)Nc1cnc2cccnn12 [Example 8, 2-((1r,4r)-4-Hydroxycyclohexyl)-N-(imidazo[1,2-b]pyridazin-3-yl)-6-methoxy-2H-indazole-5-carboxamide]",,2.8,58,50
"O=C(Nc1cnn2cccnc12)c1cc2cn([C@@H]3CCC[C@H](O)C3)nc2cc1OC1CC1 [Example 17, 6-cyclopropoxy-2-((1R,3S)-3-hydroxycyclohexyl)-N-(pyrazolo[1,5-a]pyrimidin-3-yl)-2H-indazole-5-carboxamide]",24,1,50,
O=C(Nc1cnn2cccnc12)c1cc2cn([C@H]3CCC[C@@H](O)C3)nc2cc1OC1CC1 [Example 18],,< 0.6,19,21
"COc1cc2nn(C3CCC4(CC3)CN(C(C)=O)C4)cc2cc1C(=O)Nc1cnc2cccnn12 [Example 21, 2-(2-Acetyl-2-azaspiro[3.5]nonan-7-yl)-N-(imidazo[1,2-b]pyridazin-3-yl)-6-methoxy-2H-indazole-5-carboxamide]",17,0.7,36,
"COc1cc2nn([C@H]3CC[C@H](N(C)C(C)=O)CC3)cc2cc1C(=O)Nc1cnc2cccnn12 [Example 23, N-(Imidazo[1,2-b]pyridazin-3-yl)-6-methoxy-2-((1r,4r)-4-(N-methylacetamido)cyclohexyl)-2H-indazole-5-carboxamide]",7,0.2,5,
"COc1cc2nn([C@H]3CC[C@H](N(C)C(C)=O)CC3)cc2cc1C(=O)Nc1cnn2cnccc12 [Example 25, 6-Methoxy-2-((1r,4r)-4-(N-methylacetamido)cyclohexyl)-N-(pyrazolo[1,5-c]pyrimidin-3-yl)-2H-indazole-5-carboxamide]",,1.4,19,23
"O=C(Nc1cnn2cccnc12)c1cc2cn([C@H]3CC[C@H](O)CC3)nc2cc1OC1CC1 [Example 57, 6-Cyclopropoxy-2-((1r,4r)-4-hydroxycyclohexyl)-N-(pyrazolo[1,5-a]pyrimidin-3-yl)-2H-indazole-5-carboxamide]",35,0.8,60,
"COc1cc2nn([C@H]3CC[C@@]4(CC3)CC(=O)N(C)C4)cc2cc1C(=O)Nc1cnc2cccnn12 [Example 68, N-(Imidazo[1,2-b]pyridazin-3-yl)-6-methoxy-2-((5s,8s)-2-methyl-3-oxo-2-azaspiro[4.5]decan-8-yl)-2H-indazole-5-carboxamide]",84,1.6,53,
"COc1cc2nn([C@H]3CC[C@]4(CC3)CC(=O)N(C)C4)cc2cc1C(=O)Nc1cnc2cccnn12 [Example 69, N-(Imidazo[1,2-b]pyridazin-3-yl)-6-methoxy-2-((5r,8r)-2-methyl-3-oxo-2-azaspiro[4.5]decan-8-yl)-2H-indazole-5-carboxamide]",15,0.5,22,
"COc1cc2nn([C@H]3CC[C@]4(CC3)CC(=O)N(C)C4)cc2cc1C(=O)Nc1cnn2cccnc12 [Example 86, 6-methoxy-2-((5r,8r)-2-methyl-3-oxo-2-azaspiro[4.5]decan-8-yl)-N-(pyrazolo[1,5-a]pyrimidin-3-yl)-2H-indazole-5-carboxamide]",31,1.9,36,
"COc1cc2nn([C@H]3CC[C@H](O)C[C@@H]3C)cc2cc1C(=O)Nc1cnc2cccnn12 [Example 91, 2-((1S,2S,4S)-4-hydroxy-2-methylcyclohexyl)-N-(imidazo[1,2-b]pyridazin-3-yl)-6-methoxy-2H-indazole-5-carboxamide]",49,2.3,88,
"COc1cc2nn([C@@H]3CC[C@](C)(O)C[C@H]3C)cc2cc1C(=O)Nc1cnc2cccnn12 [Example 92, 2-((1R,2R,4S)-4-hydroxy-2,4-dimethylcyclohexyl)-N-(imidazo[1,2-b]pyridazin-3-yl)-6-methoxy-2H-indazole-5-carboxamide]",28,1.6,30,
"COc1cc2nn([C@@H]3CC[C@@](C)(O)C[C@H]3C)cc2cc1C(=O)Nc1cnc2cccnn12 [Example 93, 2-((1R,2R,4R)-4-hydroxy-2,4-dimethylcyclohexyl)-N-(imidazo[1,2-b]pyridazin-3-yl)-6-methoxy-2H-indazole-5-carboxamide]",30,0.4,8,

# From patent publication US11866405B2, “Substituted indazoles as IRAK4 inhibitors” (AstraZeneca AB, priority 2020, dated 2024)
